What was measured:
Gelatinase = assay: MMP inhibition by particle concentration fluorescence technique (gelatinase); type: biochemical; settings: pH 7.5; 15 min enzyme preincubation; substrate 1-3 h at room temperature; read-out: MMP Inhibition Constants, Gelatinase Ki
Description: Inhibitory activity is evaluated in one or more of the MMP enzymes (stromelysin, gelatinase, and collagenase) in vitro using a particle concentration fluorescence techniques. An inhibitor binds to MMP enzymes prevents the degradation of a substrate of stromelysin, gelatinase, or collagenase. The substrate is attached with a fluorescein and a biotin. The intact substrate then binds to an avidin-coated particle via the biotin moiety. Once the particle is washed and dried, a fluorescent signal is generated since the fluorescent group is attached to the particle. Without an inhibitor present, the substrate is degraded by MMP enzymes and the fluorescein group is removed, therefore, no fluorescent signal can be detected. Testing compounds are dissolved in DMSO to the desired concentration, then the solutions are diluted to 1:5 with MMP buffer (50 mM Tris-HCl, pH 7.5; 150 mM NaCl; 0.02% NAN3). Serial two-fold dilutions of each compound are prepared. A concentrated, activated enzyme solution is transferred into each plate of the testing compounds, and the mixture is incubated at room temperature for 15 minutes. Thawed MMP substrate is then added into all plates, and the plates are incubate in the dark for 1-3 hours at room temperature. At this point, the substrate mixture is reacted with 0.1% avidin-coated polystyrene particles.

Stromelysin = Stromelysin (Homo sapiens, UniProt P08254); assay: MMP inhibition by particle concentration fluorescence technique (stromelysin); type: biochemical; settings: pH 7.5; 15 min enzyme preincubation; substrate 1-3 h at room temperature; read-out: MMP Inhibition Constants, Stromelysin Ki
Stromelysin, sequence (P08254 100-477): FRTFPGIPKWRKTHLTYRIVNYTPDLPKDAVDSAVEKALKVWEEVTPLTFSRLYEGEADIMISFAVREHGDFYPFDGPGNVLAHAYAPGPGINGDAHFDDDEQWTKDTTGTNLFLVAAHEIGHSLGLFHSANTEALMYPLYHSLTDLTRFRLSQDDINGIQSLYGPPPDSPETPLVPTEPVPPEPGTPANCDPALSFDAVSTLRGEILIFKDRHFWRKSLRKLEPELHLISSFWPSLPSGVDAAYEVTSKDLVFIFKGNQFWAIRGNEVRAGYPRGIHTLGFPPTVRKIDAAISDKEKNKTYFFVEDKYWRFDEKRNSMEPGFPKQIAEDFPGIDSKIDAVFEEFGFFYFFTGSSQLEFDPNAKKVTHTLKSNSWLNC
From the text: An inhibitor binds to MMP enzymes prevents the degradation of a substrate of stromelysin, gelatinase, or collagenase. The substrate is attached with a fluorescein and a biotin. The intact substrate then binds to an avidin-coated particle via the biotin moiety. Once the particle is washed and dried, a fluorescent signal is generated since the fluorescent group is attached to the particle. Without an inhibitor present, the substrate is degraded by MMP enzymes and the fluorescein group is removed, therefore, no fluorescent signal can be detected. […] Serial two-fold dilutions of each compound are prepared. A concentrated, activated enzyme solution is transferred into each plate of the testing compounds, and the mixture is incubated at room temperature for 15 minutes.

Row | Ki (Gelatinase) [µM] | Ki (Stromelysin) [µM] | Structure (SMILES)
1 | 0.082 | 0.491 | CC(C)C[C@@]1([C@@H](CCN2C(=O)c3cc4ccccc4cc3C2=O)C(=O)NO)CCN(CCc2ccccc2)C1=O (relative stereo) [Example 6]
2 | 1.42 | 1.27 | CC(C)C[C@@]1([C@@H](CCN2C(=O)c3c(F)c(F)c(F)c(F)c3C2=O)C(=O)NO)CCN(CCc2ccccc2)C1=O (relative stereo) [Example 7, N-Hydroxy-3-(2-methylpropyl)-2-oxo-1-(2-phenylethyl)-α-[2-(4,5,6,7-tetrafluoro-1,3-dihydro-1,3-dioxo-2H-isoindol-2-yl)ethyl]-3-pyrrolidineacetamide]
3 | 0.734 | 1.14 | CC(C)C[C@@]1([C@@H](CCN2C(=O)c3cc(Cl)c(Cl)cc3C2=O)C(=O)NO)CCN(CCc2ccccc2)C1=O (relative stereo) [Example 8, α-[2-(5,6-Dichloro-1,3-dihydro-1,3-dioxo-2H-isoindol-2-yl)ethyl]-N-hydroxy-3-(2-methylpropyl)-2-oxo-1-(2-phenylethyl)-3-pyrrolidineacetamide]
4 | – | 6.04 | CC(C)C[C@@]1([C@@H](CCN2C(=O)c3cccc([N+](=O)[O-])c3C2=O)C(=O)NO)CCN(CCc2ccccc2)C1=O (relative stereo) [Example 10, N-Hydroxy-3-(2-methylpropyl)-α-[2-(4-nitro-1,3-dihydro-1,3-dioxo-2H-isoindol-2-yl)ethyl]-2-oxo-1-(2-phenylethyl)-3-pyrrolidineacetamide]
5 | 0.312 | 0.12 | CC(C)C[C@@]1([C@@H](CCN2C(=O)c3cccc(F)c3C2=O)C(=O)NO)CCN(CCc2ccccc2)C1=O (relative stereo) [Example 12, α-[2-(4-Fluoro-1,3-dihydro-1,3-dioxo-2H-isoindol-2-yl)ethyl]-N-hydroxy-3-(2-methylpropyl)-2-oxo-1-(2-phenylethyl)-3-pyrrolidineacetamide]
6 | 0.28 | 0.334 | CC(C)C[C@@]1([C@@H](CCN2C(=O)c3c(F)ccc(F)c3C2=O)C(=O)NO)CCN(CCc2ccccc2)C1=O (relative stereo) [Example 13, α-[2-(4,7-Difluoro-1,3-dihydro-1,3-dioxo-2H-isoindol-2-yl)ethyl]-N-hydroxy-3-(2-methylpropyl)-2-oxo-1-(2-phenylethyl)-3-pyrrolidineacetamide]
7 | 4.09 | 2.22 | CC(C)C[C@@]1([C@@H](CCSc2cccs2)C(=O)NO)CCN(CCc2ccccc2)C1=O (relative stereo) [Example 17, N-Hydroxy-3-(2-methylpropyl)-2-oxo-1-(2-phenylethyl)-α-[2-(2-thienylthio)ethyl]-3-pyrrolidineacetamide]
8 | 3.04 | 1.47 | CC(C)C[C@@]1([C@@H](CCCSc2cccs2)C(=O)NO)CCN(CCc2ccccc2)C1=O (relative stereo) [Example 18]
9 | – | 7 | CC(C)C[C@@]1([C@@H](CCN2C(=O)c3c(F)c(F)c(F)c(F)c3C2=O)C(=O)NO)CCN(Cc2ccccc2)C1=O (relative stereo) [Example 24, N-Hydroxy-3-(2-methylpropyl)-2-oxo-1-(phenylmethyl)-α-[2-(4,5,6,7-tetrafluoro-1,3-dihydro-1,3-dioxo-2H-isoindol-2-yl)ethyl]-3-pyrrolidineacetamide]
10 | 0.998 | 0.713 | CNC(=O)CN1CC[C@@](CC(C)C)([C@@H](CCN2C(=O)c3ccccc3C2=O)C(=O)NO)C1=O (relative stereo) [Example 26, α^3-[2-(1,3-Dihydro-1,3-dioxo-2H-isoindol-2-yl)ethyl]-N^3-hydroxy-N^1-methyl-3-(2-methylpropyl)-2-oxo-1,3-pyrrolidinediacetamide]
11 | 16.5 | 11 | CNC(=O)CN1CC[C@@](CC(C)C)([C@@H](CCN2C(=O)c3c(F)c(F)c(F)c(F)c3C2=O)C(=O)NO)C1=O (relative stereo) [Example 27, N^3 -Hydroxy-N^1-methyl-3-(2-methylpropyl)-2-oxo-α^3-[2-(4,5,6,7-tetrafluoro-1,3-dihydro-1,3-dioxo-2H-isoindol-2-yl)ethyl]-1,3-pyrrolidinediacetamide]
12 | 1.4 | – | CC(C)C[C@@]1([C@@H](CCNS(=O)(=O)c2ccc(F)cc2)C(=O)NO)CCN(CCc2ccccc2)C1=O (relative stereo) [Example 81, α-[2-[[(4-Fluorophenyl)sulfonyl]amino]ethyl]-N-hydroxy-3-(2-methylpropyl)-2-oxo-1-(2-phenylethyl)-3-pyrrolidineacetamide]
13 | 0.031 | 0.116 | CC(C)C[C@@]1([C@@H](CCN2Cc3cc(F)c(F)cc3C2=O)C(=O)NO)CCN(CCc2ccccc2)C1=O (relative stereo) [Example 85, 5,6-Difluoro-1,3-dihydro-N-hydroxy-α-[3-(2-methylpropyl)-2-oxo-1-(2-phenylethyl)-3-pyrrolidinyl]-1-oxo-2H-isoindole-2-butanamide]
14 | 2.47 | 2.77 | CC(C)CC1(C(CSc2cccs2)C(=O)NO)CCN(CCc2ccccc2)C1=O (stereo not drawn) [Example 19, N-Hydroxy-3-(2-methylpropyl)-2-oxo-1-(2-phenylethyl)-α-[2-(2-thienylthio)methyl]-3-pyrrolidineacetamide]
15 | – | 3.12 | CC(C)CC1(CC(=O)NO)CC(=O)N(CCc2ccccc2)C1=O (stereo not shown) [Example 35, N-Hydroxy-3-(2-methylpropyl)-2,5-dioxo-1-(2-phenylethyl)-3-pyrrolidineacetamide]
16 | 44 | 2.4 | CC(C)CC1(CC(=O)NO)C(=O)N(CCc2ccccc2)C(=O)N1C (stereo not shown) [Example 36, N-Hydroxy-3-methyl-4-(2-methylpropyl)-2,5-dioxo-1-(2-phenylethyl)-4-imidazolidineacetamide]
17 | – | 4.74 | CC(C)CC1(CC(=O)NO)NC(=O)N(CCc2ccccc2)C1=O (stereo not shown) [Example 37, N-Hydroxy-4-(2-methylpropyl)-2,5-dioxo-1-(2-phenylethyl)-4-imidazolidineacetamide]
18 | 0.0029 | 0.023 | CNC(=O)[C@H](Cc1ccccc1)N1CC[C@@](CC(C)C)([C@H](CCN2C(=O)c3ccccc3C2=O)C(=O)NO)C1=O [Example 58, [3S-[1(R*),3R*(R*)]]-α^3-[2-(1,3-Dihydro-1,3-dioxo-2H-isoindol-2-yl)ethyl]-N^3-hydroxy-N^1-methyl-3-(2-methylpropyl)-2-oxo-α^1-(phenylmethyl)-1,3-pyrrolidinediacetamide]
19 | 3 | – | CC(C)C[C@@]1([C@@H](CCNS(=O)(=O)c2ccc(F)cc2)C(=O)NO)CCN(CCc2ccccc2)C1=O [Example 84, [R-(R*,S*)]-α-[2-[[(4-Fluorophenyl)sulfonyl]amino]ethyl]-N-hydroxy-3-(2-methylpropyl)-2-oxo-1-(2-phenylethyl)-3-pyrrolidineacetamide]
20 | 0.146 | 0.318 | CC(C)C[C@@]1([C@@H](CCN2Cc3cc(F)c(F)cc3C2=O)C(=O)NO)CCN(CCc2ccccc2)C1=O [Example 89, [R-(R*,S*)]-5,6-Difluoro-1,3-dihydro-N-hydroxy-α-[3-(2-methylpropyl)-2-oxo-1-(2-phenylethyl)-3-pyrrolidinyl]-1-oxo-2H-isoindole-2-butanamide]
